Numbers after ± are expanded uncertainties.
Experiment: xn = mol fraction of the nth substance listed
Settings: Liquid, Bellows volumetry

N [ammonia] + O
mass density [kg/m3]
Settings | x1 = 0.1048 | x1 = 0.2046 | x1 = 0.3807 | x1 = 0.5565 | x1 = 0.7008 | x1 = 0.801 | x1 = 0.9102 | x1 = 1
450 K, 10000 kPa | 843.9 ± 4.1 | 796.9 ± 3.8 | 708.1 ± 3.4 | 608.5 ± 3 | – | – | – | –
450 K, 20000 kPa | 850.4 ± 4.1 | 804.3 ± 3.9 | 718.8 ± 3.5 | 625.9 ± 3 | 534.7 ± 2.6 | 458.5 ± 2.2 | – | –
450 K, 30000 kPa | 856.6 ± 4.1 | 811 ± 3.9 | 728.1 ± 3.5 | 639.8 ± 3.1 | 557.7 ± 2.7 | 495.6 ± 2.4 | 422 ± 2.1 | 355.3 ± 1.7
450 K, 40000 kPa | 862.7 ± 4.2 | 817.8 ± 3.9 | 736.8 ± 3.6 | 651.6 ± 3.2 | 575.2 ± 2.8 | 519.2 ± 2.5 | 457.5 ± 2.2 | 403.7 ± 1.9
450 K, 50000 kPa | 868.5 ± 4.2 | 823.8 ± 4 | 744.9 ± 3.6 | 662.2 ± 3.2 | 589.4 ± 2.9 | 537.4 ± 2.6 | 481.3 ± 2.3 | 433.4 ± 2.1
450 K, 60000 kPa | 873.9 ± 4.2 | 829.6 ± 4 | 751.5 ± 3.6 | 671.3 ± 3.2 | 601.8 ± 2.9 | 552.2 ± 2.7 | 499.7 ± 2.4 | 455.2 ± 2.2
450 K, 70000 kPa | 879.1 ± 4.2 | 835.4 ± 4 | 758.3 ± 3.7 | 680.1 ± 3.3 | 612.5 ± 3 | 564.9 ± 2.7 | 514.8 ± 2.5 | 472.6 ± 2.3
450 K, 80000 kPa | 884.2 ± 4.3 | 840.9 ± 4.1 | 765.1 ± 3.7 | 687.8 ± 3.3 | 622.2 ± 3 | 576 ± 2.8 | 527.7 ± 2.6 | 487.4 ± 2.3
450 K, 90000 kPa | 889.2 ± 4.3 | 845.9 ± 4.1 | 771.1 ± 3.7 | 695.3 ± 3.4 | 631.2 ± 3.1 | 586.2 ± 2.8 | 539.1 ± 2.6 | 500.2 ± 2.4
450 K, 100000 kPa | 893.9 ± 4.3 | 850.6 ± 4.1 | 777.1 ± 3.7 | 702.2 ± 3.4 | 639.2 ± 3.1 | 595.2 ± 2.9 | 549.2 ± 2.7 | 511.7 ± 2.5
450 K, 120000 kPa | 902.7 ± 4.3 | 860.3 ± 4.1 | 788.1 ± 3.8 | 714.8 ± 3.4 | 654 ± 3.2 | 611.5 ± 3 | 566.9 ± 2.7 | 531.4 ± 2.6
450 K, 140000 kPa | 911.3 ± 4.4 | 868.9 ± 4.2 | 798.6 ± 3.8 | 726.2 ± 3.5 | 666.9 ± 3.2 | 625.9 ± 3 | 582.2 ± 2.8 | 548.2 ± 2.6
450 K, 160000 kPa | 919.5 ± 4.4 | 877.1 ± 4.2 | 807.9 ± 3.9 | 736.6 ± 3.6 | 678.7 ± 3.3 | 638.7 ± 3.1 | 595.6 ± 2.9 | 563.1 ± 2.7
450 K, 180000 kPa | 927 ± 4.5 | 885.1 ± 4.3 | 817.2 ± 3.9 | 746.2 ± 3.6 | 689.4 ± 3.3 | 650.1 ± 3.1 | 607.8 ± 2.9 | 576.3 ± 2.8
450 K, 200000 kPa | 934.3 ± 4.5 | 892.2 ± 4.3 | 825.3 ± 4 | 755.2 ± 3.6 | 699.3 ± 3.4 | 660.9 ± 3.2 | 618.7 ± 3 | 588.2 ± 2.8
500 K, 10000 kPa | 782.5 ± 3.8 | 728.2 ± 3.5 | – | – | – | – | – | –
500 K, 20000 kPa | 792.5 ± 3.8 | 740.4 ± 3.6 | 641.7 ± 3.1 | 517 ± 2.5 | – | – | – | –
500 K, 30000 kPa | 801.3 ± 3.9 | 751.1 ± 3.6 | 658.5 ± 3.2 | 551.1 ± 2.7 | 447.5 ± 2.2 | – | – | –
500 K, 40000 kPa | 809.6 ± 3.9 | 760.6 ± 3.7 | 672.4 ± 3.3 | 574 ± 2.8 | 487.8 ± 2.4 | 422 ± 2.1 | – | –
500 K, 50000 kPa | 817.3 ± 3.9 | 769.5 ± 3.7 | 684.3 ± 3.3 | 591.7 ± 2.9 | 514.1 ± 2.5 | 456.2 ± 2.2 | – | 350.9 ± 1.7
500 K, 60000 kPa | 824.3 ± 4 | 777.5 ± 3.8 | 695.3 ± 3.4 | 606.4 ± 2.9 | 534.1 ± 2.6 | 480.7 ± 2.3 | 426.9 ± 2.1 | 384.9 ± 1.8
500 K, 70000 kPa | 831.3 ± 4 | 785.1 ± 3.8 | 704.8 ± 3.4 | 619 ± 3 | 550.6 ± 2.7 | 499.8 ± 2.4 | 450 ± 2.2 | 410.1 ± 2
500 K, 80000 kPa | 837.7 ± 4 | 792.1 ± 3.8 | 713.9 ± 3.4 | 630.1 ± 3 | 564.5 ± 2.7 | 515.8 ± 2.5 | 468.5 ± 2.3 | 430.2 ± 2.1
500 K, 90000 kPa | 843.7 ± 4.1 | 798.6 ± 3.9 | 721.8 ± 3.5 | 640.2 ± 3.1 | 576.7 ± 2.8 | 529.6 ± 2.6 | 484.1 ± 2.3 | 446.9 ± 2.1
500 K, 100000 kPa | 849.7 ± 4.1 | 805 ± 3.9 | 729.7 ± 3.5 | 649.4 ± 3.1 | 587.6 ± 2.8 | 541.6 ± 2.6 | 497.6 ± 2.4 | 461.5 ± 2.2
500 K, 120000 kPa | 860.7 ± 4.1 | 816.7 ± 3.9 | 743.7 ± 3.6 | 665.7 ± 3.2 | 606.7 ± 2.9 | 562.5 ± 2.7 | 520.1 ± 2.5 | 485.8 ± 2.3
500 K, 140000 kPa | 870.8 ± 4.2 | 827.5 ± 4 | 756.6 ± 3.6 | 679.9 ± 3.3 | 623.1 ± 3 | 580.1 ± 2.8 | 538.9 ± 2.6 | 505.9 ± 2.4
500 K, 160000 kPa | 880.6 ± 4.2 | 837.4 ± 4 | 768.3 ± 3.7 | 692.9 ± 3.3 | 637.4 ± 3.1 | 595.3 ± 2.9 | 555 ± 2.7 | 523.1 ± 2.5
500 K, 180000 kPa | 889.4 ± 4.3 | 846.7 ± 4.1 | 779.3 ± 3.8 | 704.5 ± 3.4 | 650.4 ± 3.1 | 608.9 ± 2.9 | 569.2 ± 2.7 | 538.3 ± 2.6
500 K, 200000 kPa | 897.9 ± 4.3 | 855.4 ± 4.1 | 789.2 ± 3.8 | 715 ± 3.4 | 662.1 ± 3.2 | 621.2 ± 3 | 581.9 ± 2.8 | 551.9 ± 2.6

Reference: the NIST ThermoML archive (doi:10.1016/j.jct.2008.06.009)
